From PubChem BioAssay AID179 (DTP/NCI, 2004)
Activity calls are given as the source filed them.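 Rule for the calls: active = compounds giving half or more protection of infected cells from virus-caused growth loss, again on retest; inactive = the rest.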 Where a SMILES comes first, the peptide text is derived from it. [ ]: non-standard residue; d: D form. The star is where a group is joined. Phe(4-NO2) = N[CH](Cc1ccc([N+](=O)[O-])cc1)C(=O)O; Boc = CC(C)(C)OC(=O)*; OtBu = CC(C)(C)O*

Test system: CEM cells HIV-1 protection, formazan growth assay
Experiment: NCI AIDS Antiviral Assay
Conditions: for IC50: measured here: growth of uninfected CEM cells
In short: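 Category rules: moderately active means at least 50% protection on retest, and confirmed active means 100% protection reproducibly. The underlying data came from a formazan growth assay in HIV-1-infected CEM cells.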

## Nc1cc(N)c(N=Nc2ccc(/C=C\c3ccc(N=Nc4c(N)cc(N)cc4C(=O)O)cc3S(=O)(=O)O)c(S(=O)(=O)O)c2)c(C(=O)O)c1.[Zn+2]
  EC50: > 30.2 µM
  IC50: 23.4 µM

## CCOC(=O)/C=C/[C@H](O)[C@@H](O)/C=C/C(=O)OCC
  EC50: > 200 µM
  IC50: 17 µM

## COc1ccc(C2c3cc4c(cc3OC(Nc3ccccc3)C2C)OCO4)cc1 (configuration not stated)
  EC50: > 200 µM
  IC50: 24.5 µM

## O=C1C(Cl)C(c2cc(Br)cc(Br)c2O)N1n1cnc2ccccc2c1=O (configuration not stated)
  EC50: > 10.5 µM
  IC50: > 10.5 µM

## O=NNc1ccc(Sc2ccc(NN=O)cn2)nc1
  EC50: > 100 µM
  IC50: > 100 µM

## CC(C)=CCN1CCCn2c(=S)[nH]c3cccc(c32)C1=O
  EC50: > 200 µM
  IC50: > 200 µM

## CCCNC(=S)N=Nc1c(O)[nH]c2ccccc12
  EC50: > 200 µM
  IC50: > 200 µM

## CCCCCCCCCCCCCCCCCCCCCCCCCCCCCC=C(c1cc(Cl)c(OC)c(C(=O)OC)c1)c1cc(Cl)c(OC)c(C(=O)OC)c1
  EC50: > 2.24 µM
  IC50: > 2.24 µM

## C=CC(C)(O)CNc1ccccc1 (configuration not stated)
  EC50: > 204 µM
  IC50: > 204 µM

## O=C(NC1C=Nc2ccc(Cl)cc2NC1=O)c1ccc(Cl)cc1 (configuration not stated)
  EC50: > 200 µM
  IC50: > 200 µM

## Fc1ccc(C2SCc3nc4ccccc4n32)cc1Cl (configuration not stated)
  EC50: > 72.4 µM
  IC50: 25.7 µM

## Cc1c(C)n(COCCO)c2ncnc(N)c12
  EC50: > 200 µM
  IC50: > 200 µM

## CC(=O)OC/C=C/Cn1cnc(C(N)=O)c1N
  EC50: > 200 µM
  IC50: > 200 µM

## O=C(O)CN=c1c2ccccc2n(O)c2ccccc12
  outcome: inactive

## Cn1c(N)c(N)c(=O)[nH]c1=O
  EC50: > 200 µM
  IC50: 162 µM

## COc1cc(/C=C2\S/C(=N/Nc3nc(-c4ccc(Br)cc4)cs3)NC2=O)cc(OC)c1OC
  EC50: > 200 µM
  IC50: 17 µM

## COc1cc(C(=O)N2CCc3c([nH]c4c([N+](=O)[O-])c(OC)ccc34)C2C)cc(OC)c1OC (configuration not stated)
  outcome: inactive

## Cc1ccc(Oc2nc(Cl)nc(Oc3ccc(C)cc3)n2)cc1
  EC50: > 200 µM
  IC50: > 200 µM

## COc1cc(OC)c(OC)cc1/C=C\c1ccnc2ccccc12
  EC50: > 30.9 µM
  IC50: 1.48 µM

## CC1(C)C(c2ccccc2)=NN(O)c2ccccc21
  outcome: inactive

## O=C1c2ccccc2C(=O)c2sccc21
  EC50: > 200 µM
  IC50: 7.24 µM

## [N-]=[N+]=CC(=O)OCC1SCCCS1
  EC50: > 200 µM
  IC50: > 200 µM

## C[C@@]12C[C@@H](c3ccccc3O1)N1CCCSC1=N2
  EC50: 74.1 µM
  IC50: > 200 µM

## O=C(OCCN1CCOCC1)C1C[C@@H](O)CN1C(=O)c1ccc2c(c1)OCO2 (some centres not stated)
  EC50: > 200 µM
  IC50: > 200 µM

## Cc1ccc(S(=O)(=O)N(CCC(=O)O)c2ccccc2)cc1
  EC50: > 200 µM
  IC50: > 200 µM

## Cn1c2c(c3nc(N)nc(N)c3c1=O)CCc1ccccc1-2
  EC50: > 200 µM
  IC50: 12.9 µM

## O=C(NNS(=O)(=O)c1ccccc1)c1csc(NC(=S)NC2CCCCC2)n1
  EC50: > 72.4 µM
  IC50: 28.8 µM

## NC(=O)C12C(=O)NC(=O)C1(C(=O)O)C2C1CCCCC1 (configuration not stated)
  outcome: inactive

## CCOC(=O)C(NC(C)=O)[CH](c1ccc(OC)cc1)[Sn]([c]1ccccc1)([c]1ccccc1)[c]1ccccc1 (configuration not stated)
  EC50: > 200 µM
  IC50: 1.07 µM

## CS(=O)(=O)CSCSSCS(C)(=O)=O
  EC50: > 427 µM
  IC50: 20 µM

## O=C1/C(=C\c2ccc(Cl)cc2Cl)Sc2scc(-c3ccc(O)c(O)c3)[n+]21
  EC50: > 200 µM
  IC50: 6.31 µM

## CC1(c2ccc(Cl)cc2)OC(=O)c2c1ccc1ccccc21 (configuration not stated)
  outcome: inactive

## Cc1ccc(-c2oc(C=Nc3ccccc3)c([N+](=O)[O-])c2-c2ccc(C)cc2)cc1
  EC50: > 200 µM
  IC50: > 200 µM

## CCOC(=O)C(C(=O)OCC)C1c2ccccc2-c2ccccc21
  EC50: > 200 µM
  IC50: 77.6 µM

## O=S(=O)(Nc1nnc2c3ccccc3cnn12)c1ccc(F)cc1S
  EC50: 110 µM
  IC50: 468 µM

## Cc1c(C)c(C)c(-n2c(=O)n(C)c(=O)n2-c2cc(C(C)(C)C)cc(C(C)(C)C)c2O)c(C)c1C
  EC50: > 200 µM
  IC50: 13.2 µM

## CCOC(=O)c1c(C(CC)C(=O)OC(C)C)cc2n(c1=O)Cc1c-2nc2ccccc2c1Cl (configuration not stated)
  EC50: > 10 µM
  IC50: > 10 µM

## Cc1nc(N/N=C/c2ccccc2Cl)[nH]c(=O)c1CCO
  EC50: > 100 µM
  IC50: > 100 µM

## CCOC(=O)C(O)(C(=O)OCC)c1cc(C(C)(C)C)c(O)c(C(C)(C)C)c1
  EC50: > 200 µM
  IC50: 83.2 µM

## CC(=O)OCC1OC(Nc2ccc3nc(C)n(-c4ccccc4)c(=O)c3c2)C(OC(C)=O)C(OC(C)=O)C1OC(C)=O (configuration not stated)
  EC50: > 100 µM
  IC50: 61.7 µM

## O=C(Cc1ccccc1)N/N=C(/c1nc2ccc([N+](=O)[O-])cc2[nH]c1=O)C(O)c1ccc(C(O)/C(=N/NC(=O)Cc2ccccc2)c2nc3ccc([N+](=O)[O-])cc3[nH]c2=O)cc1 (configuration not stated)
  EC50: > 155 µM
  IC50: 52.5 µM

## COc1cccc(C2SC(N)=Nc3c2c(C)nn3C(=O)c2ccccc2O)c1 (configuration not stated)
  EC50: > 2 µM
  IC50: 0.17 µM

## CC1=C(C#N)C2(C(=O)Nc3ccccc32)C(C#N)=C(C)N1
  EC50: > 162 µM
  IC50: > 162 µM

## COc1cc(N=Nc2cc(NC(C)=O)c(N=Nc3ccc(S(=O)(=O)O)cc3)cc2S(=O)(=O)O)c(C)cc1N=Nc1ccc(NC(=O)c2ccc(N)cc2)cc1C
  EC50: 8.71 µM
  IC50: 97.7 µM

## CC1(C)CCCC2(C)[C@@H]1CC[C@]13C[C@](C)(CC[C@@H]21)[C@@H]3CO (some centres not stated)
  EC50: > 12.3 µM
  IC50: > 12.3 µM

## CC(C(O)c1ccccc1)N(C)/N=N/c1nc2c([nH]1)c(=O)n(C)c(=O)n2C (configuration not stated)
  EC50: > 200 µM
  IC50: 110 µM

## CCOP(C)(=O)C(Cc1c[nH]c2ccccc12)C(=O)O (configuration not stated)
  EC50: > 200 µM
  IC50: > 200 µM

## COC(=O)c1coc(CC/C(C)=C/c2ccccc2)n1
  EC50: > 200 µM
  IC50: 126 µM

## CC(C)(C)OC(=O)CC(NC(=O)OC(C)(C)C)C(=O)NC(Cc1ccccc1)C(N)=O (configuration not stated) (Boc-Asp(OtBu)-Phe-NH2; configuration not given here)
  EC50: 162 µM
  IC50: > 200 µM

## COC(=O)CCC(NC(=O)OC(C)(C)C)C(=O)NC(Cc1ccc([N+](=O)[O-])cc1)C(=O)NC(CCC(=O)OC)C(=O)OC (configuration not stated) (Boc-Glu(OMe)-[Phe(4-NO2)]-Glu(OMe)-OMe; configuration not given here)
  EC50: > 100 µM
  IC50: 47.9 µM

## CCOc1ccc(C(=O)CCN2CCC3CCC(C3)C2)cc1 (configuration not stated)
  EC50: > 200 µM
  IC50: 13.8 µM

## O=C(NC(Cc1c[nH]c2ccccc12)C(=O)O)/C(=C/c1ccccc1)NC(=O)c1ccccc1 (configuration not stated)
  EC50: > 200 µM
  IC50: 135 µM

## Cc1cc(NC(=O)c2ccc(NC(=O)c3ccc(N)cc3)cc2)ccc1N=Nc1ccc2c(O)c(N=Nc3ccc(S(=O)(=O)O)cc3C)c(S(=O)(=O)O)cc2c1
  EC50: 6.17 µM
  IC50: > 100 µM

## COc1cccc2c1C(=O)c1ccc3cc(CCl)cc(O)c3c1C2=O
  EC50: > 200 µM
  IC50: 0.468 µM

## O=C1C(O)=C(c2ccccc2C(=O)O)C(=O)C(O)=C1c1ccccc1C(=O)O
  EC50: > 110 µM
  IC50: > 110 µM

## O=c1cc2ccc(Cl)cc2n[nH]1
  EC50: > 85.1 µM
  IC50: > 85.1 µM

## Cc1nc2ccccc2n1C(=O)c1c(F)c(F)c(F)c(F)c1F
  EC50: > 200 µM
  IC50: 33.9 µM

## NC(=S)NNC(=S)NC(=O)c1ccco1
  EC50: > 200 µM
  IC50: > 200 µM

## CNC(=O)N(CCC#N)[C@H]1CCCC[C@@H]1N(C(=O)NC)c1ccccc1
  EC50: > 200 µM
  IC50: > 200 µM

## CN(C)C(=S)/N=c1\ssc(=S)n1C
  outcome: inactive

## CC(=O)Oc1ccc[nH]c1=O
  EC50: > 200 µM
  IC50: 58.9 µM

## CCCCc1c2c(nc3c1CCc1cc4cc5c(nc4nc1-3)-c1nc3c(c(CCCC)c1CC5)CCC/C3=C\c1ccccc1)/C(=C/c1ccccc1)CCC2
  EC50: > 1.95 µM
  IC50: > 1.95 µM

## O=c1[nH]c(=O)n(COCCO)c2ccsc12
  EC50: > 200 µM
  IC50: > 200 µM

## COC(=O)c1ccc([As](=O)(O)O)cc1C(C)=O
  EC50: > 200 µM
  IC50: 148 µM

## CS(=O)(=O)OC[C@@H]1OCO[C@H]1COS(C)(=O)=O
  EC50: > 200 µM
  IC50: > 200 µM

## COCc1c(CO)cnc(C)c1OC1OC(CO)C(O)C(O)C1O (configuration not stated)
  EC50: > 724 µM
  IC50: > 724 µM

## Cc1ccc(/C(O)=C/c2nc3c(nc2NC24CC5CC(CC(C5)C2)C4)c(=O)oc2ccccc23)cc1
  EC50: > 2.19 µM
  IC50: > 2.19 µM

## C#C[C@]1(O)CC[C@H]2[C@@H]3C[C@@H](O)[C@]45CC4CC[C@]5(C)[C@H]3CC[C@@]21C (some centres not stated)
  EC50: > 200 µM
  IC50: 72.4 µM

## COc1cc(/C=C/C(=O)CC(=O)/C=C/c2ccc(O)c(OC)c2)ccc1O (tested in a mixture with another compound)
  EC50: > 200 µM
  IC50: 3.31 µM

## O=c1[nH]c(C2CCCCC2)nc2cc(Cl)ccc12
  outcome: inactive

## COc1cc2c(cc1OC)NCc1ccccc1NCc1cc(OC)c(OC)cc1NCc1ccccc1NC2
  EC50: > 200 µM
  IC50: 107 µM

## CC12CC3(C)CC(C)(C1)CC(C(NC(C)(C)C)C(=O)O)(C2)C3 (configuration not stated)
  outcome: inactive

## Cn1c(=O)oc2cc(C(=O)CN3CCN(Cc4ccc5c(c4)OCO5)CC3)c(Cl)cc21
  EC50: > 200 µM
  IC50: 178 µM

## NC(CSS(=O)(=O)O)=NCC1CC2CCC1C2 (configuration not stated)
  EC50: > 200 µM
  IC50: 91.2 µM

## C=CC(c1ccccc1)[C@@]1(OC(C)=O)C(=O)C(=O)OC1C1COC(C)(C)O1 (some centres not stated)
  EC50: > 200 µM
  IC50: 6.46 µM

## COC1=CC(=Nc2c(Cl)cc(Cl)cc2OC(=O)c2ccc([N+](=O)[O-])cc2)C=C(OC)C1=O
  outcome: inactive

## COC(=O)/C=C(\C(=O)OC)c1cc(C)c2cc(C(C)C)ccc(C)c1-2
  EC50: > 200 µM
  IC50: 28.2 µM

## Cc1ccccc1N=Nc1ccc(N/N=C2/CCCNC2=O)c(C)c1
  EC50: > 200 µM
  IC50: 182 µM

## O/N=c1/sc2ccccc2nc1-c1ccccc1
  EC50: > 200 µM
  IC50: > 200 µM

## CCOC(=O)CC1c2ccc(O)cc2OC(=O)C1c1ccc([N+](=O)[O-])cc1 (configuration not stated)
  EC50: > 200 µM
  IC50: 31.6 µM

## OC(Cc1cnnc2ccccc12)C(Cl)(Cl)Cl (configuration not stated)
  EC50: > 200 µM
  IC50: 70.8 µM

## COc1ccc(NC(=O)CCc2cc(-c3ccc(O)c(OC)c3)nc(NC#N)n2)cc1
  EC50: > 224 µM
  IC50: > 224 µM

## Nc1[nH]nc2nc3ccc(C(F)(F)F)cc3nc12
  EC50: > 200 µM
  IC50: 29.5 µM
